Here are results for 16 molecules from patent US10106535B2, “Histone deacetylase inhibitors and compositions and methods of use thereof” (CHDI Foundation, Inc., priority 2013, dated 2018).

The pIC50 is the IC50 on a negative log10 scale, so that one unit is a factor of ten.

The target of assay [1] is human catalytic domain HDAC4 protein (amino acids 648-1032) (Homo sapiens (Human), UniProt P56524). Put plainly: Inhibition of HDAC4 catalytic domain enzymatic activity, fluorogenic substrate Boc-Lys(Tfa)-AMC. The conditions noted are these: read-out: Biochemical HDAC-4 IC50. The source says:
The potency of Class IIa Histone Deacetylase (HDAC) inhibitors is quantified by measuring the Histone Deacetylase 4 (HDAC4) catalytic domain enzymatic activity using the fluorogenic substrate, Boc-Lys(Tfa)-AMC. The substrate is deacetylated to Boc-Lys-AMC by HDAC4. Cleavage by trypsin results in the release of the fluorophore AMC from the deacetylated substrate. The fluorescence of the sample is directly related to the histone deacetylase activity in the sample.
Serial dilutions of the HDAC inhibitors and control reference compound (1-(5-(3-((4-(1,3,4-oxadiazol-2-yl)phenoxy)methyl)-1,2,4-oxadiazol-5-yl)thiophen-2-yl)-2,2,2-trifluoroethanone) are made by first resuspending the lyophilized compound to a final concentration of 10 mM in 100% dimethyl sulfoxide (DMSO). Stocks of 60 μl aliquots of the 10 mM compound in DMSO are prepared and stored at −20° C. From one stock aliquot of each compound to be tested and the reference compound, a 16-point serial dilution is prepared according to Table 7 using a 125 μl 16-channel Matrix multi-channel pipette (Matrix Technologies Ltd). […]
5 μl of each solution of 1:20 diluted compound from above is transferred to a clear bottomed, black, 384-well assay plate using the Bravo or the Janus (384-well MDT head from Perkin Elmer). […] Finally, the fluorescence is measured (Excitation: 355 nm, Emission: 460 nm) using PerkinElmer EnVision in top read mode.

In assay [2] the test system is cellular histone deacetylase enzymatic activity in Jurkat E6-1 cells. Put plainly: Inhibition of cellular HDAC activity in Jurkat E6-1 cells, fluorogenic substrate Boc-Lys(Tfa)-AMC. The following applies: Homo sapiens, read-out: Cell IC50. It counts as cell-based. The source says:
Example 50: Analysis of Inhibition of Cellular HDAC Activity with Class IIa Histone Deacetylase (HDAC) Inhibitors
The potency of Class IIa Histone Deacetylase (HDAC) inhibitors is quantified by measuring the cellular histone deacetylase enzymatic activity using the fluorogenic substrate, Boc-Lys(Tfa)-AMC. After penetration in Jurkat E6-1 cells, the substrate is deacetylated to Boc-Lys-AMC. After cell lysis and cleavage by trypsin, the fluorophore AMC is released from the deacetylated substrate only. The fluorescence of the sample is directly related to the histone deacetylase activity in the sample.
Jurkat E6.1 cells are cultured according to standard cell culture protocols in Jurkat E6.1 Growth Media (RPMI without phenol red, 10% FBS, 10 mM HEPES, and 1 mM Sodium Pyruvate). Jurkat E6.1 cells are counted using a Coulter Counter and resuspended in Jurkat E6.1 growth media at a concentration of 75,000 cells/35 μl. 35 μl or 75,000 cells is seeded into Greiner microtitre assay plates. The plates are then incubated at 37° C. and 5% CO2 while other assay components are being prepared.
Serial dilutions of the HDAC inhibitors and control reference compound (1-(5-(3-((4-(1,3,4-oxadiazol-2-yl)phenoxy)methyl)-1,2,4-oxadiazol-5-yl)thiophen-2-yl)-2,2,2-trifluoroethanone) are made by first resuspending the lyophilized compound to a final concentration of 10 mM in 100% DMSO. Stocks of 70 μl aliquots of the 10 mM compound in DMSO are prepared and stored at −20° C. From one stock aliquot of each compound to be tested and the reference compound, a 16-point serial dilution is prepared according to Table 1 using a 125 μl 16-channel Matrix multi-channel pipette.
2 μl (200×) of each diluted solution and each control (full activity: 100% DMSO alone or full inhibition 1 mM) is stamped into V-bottom polypropylene 384-well compound plates using either the Bravo, Janus, or 12.5 μl 16-channel Matrix multi-channel pipette. Each well with the 200× compound solution is diluted 1:20 by the addition of 38 μl Jurkat assay buffer+DMSO (9.5% DMSO, RPMI without phenol red, 0.09% FBS, 9 mM Hepes, and 0.9 mM Sodium Pyruvate equilibrated to room temperature)
5× (500 μM) substrate is prepared just prior to the addition to the assay. The 5× substrate is prepared by diluting a 100 mM Boc-Lys(Tfa)-AMC in DMSO solution 1:200 by adding it drop-wise to Jurkat assay medium (RPMI without phenol red, 0.1% FBS, 10 mM Hepes, and 1 mM Sodium Pyruvate equilibrated to 37° C.) while vortexing at slow speed to prevent precipitation.
10 ml of 3× lysis buffer is prepared with 8.8 ml of 3× stock lysis buffer (50 mM Tris-HCl, pH 8.0, 137 mM NaCl, 2.7 mM KCl, 1 mM MgCl2, 1% Nonidet P40 Substitute equilibrated to room temperature) and 1.2 ml of 3 mg/ml Trypsin equilibrated to room temperature.
5 μl of each solution of 1:20 diluted compound from above is transferred to the Greiner microtitre assay plates with 75,000 cells/well using the Bravo. Cells are then incubated for 2 hours at 37° C. and 5% CO2. The assay is then started by adding 10 μl of 5× (500 μM) substrate to the assay plate using either the Bravo or 16-channel Matrix multi-channel pipette. The cells are then incubated for 3 hours at 37° C. and 5% CO2. Next, 25 μl of 3× lysis buffer is added to each well using either the 125 μl 16 channel pipette or the Bravo. The assay plate is then incubated overnight (15-16 hours) at 37° C. and 5% CO2. The following day, the plates are shaken on an orbital shaker for 1 minute at 900 rpm. Finally the top read fluorescence (Excitation: 355 nm, Emission: 460 nm) is measured using PerkinElmer EnVision.

pIC50: −log10 of the molar value.

Chain of human catalytic domain HDAC4 protein (amino acids 648-1032) (P56524 648-1032): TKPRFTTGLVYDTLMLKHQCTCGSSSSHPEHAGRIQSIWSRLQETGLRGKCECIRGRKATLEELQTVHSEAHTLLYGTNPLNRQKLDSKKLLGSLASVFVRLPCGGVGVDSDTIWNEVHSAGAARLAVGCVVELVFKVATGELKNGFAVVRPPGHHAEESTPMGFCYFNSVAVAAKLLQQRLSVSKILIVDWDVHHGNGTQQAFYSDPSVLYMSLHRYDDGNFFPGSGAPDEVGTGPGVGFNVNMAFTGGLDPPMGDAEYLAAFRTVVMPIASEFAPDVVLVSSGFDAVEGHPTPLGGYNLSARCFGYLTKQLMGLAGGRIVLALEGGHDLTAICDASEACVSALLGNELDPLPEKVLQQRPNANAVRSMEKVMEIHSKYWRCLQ

As for `Cc1ncc(C2=C[C@](C(=O)NO)(c3cccc(F)c3C)CC2)cn1` [Example 10, (S)-1-(3-fluoro-2-methylphenyl)-N-hydroxy-3-(2-methylpyrimidin-5-yl)cyclopent-2-enecarboxamide], the pIC50 is 7.40 in assay [1] and 6.42 in assay [2]. On to `O=C(NO)C1(c2ccccc2)CC=CC1` [Example 30, N-hydroxy-1-phenyl-cyclopent-3-enecarboxamide], for which the pIC50 in assay [2] was less than 4.30. As to `Cc1c(F)cccc1[C@@]1(C(=O)NO)C=C(c2ccc3scnc3c2)CC1` [Example 40, (S)-3-(benzo[d]thiazol-5-yl)-1-(3-fluoro-2-methylphenyl)-N-hydroxycyclopent-2-enecarboxamide], in assay [2], the pIC50 was 7.30. The same measure, in the same setting: for `Cc1ncc(Cl)cc1C1=C[C@](C(=O)NO)(c2cccc(F)c2C)CC1` [Example 36, (S)-3-(5-chloro-2-methylpyridin-3-yl)-1-(3-fluoro-2-methylphenyl)-N-hydroxycyclopent-2-enecarboxamide] the value was 6.92. Still for that read-out and setting: for `Cc1c([C@@]2(C(=O)NO)C=C(c3ccc4cnn(C)c4c3)CC2)ccc(F)c1F` [Example 42, (S)-1-(3,4-difluoro-2-methylphenyl)-N-hydroxy-3-(1-methyl-1H-indazol-6-yl)cyclopent-2-enecarboxamide] the value was 7.70; for `Cc1c(F)cccc1[C@@]1(C(=O)NO)C=C(c2cncnc2)CC1` [Example 14, (S)-1-(3-fluoro-2-methylphenyl)-N-hydroxy-3-(pyrimidin-5-yl)cyclopent-2-enecarboxamide], 6.44; for `Cc1c(F)cccc1[C@@]1(C(=O)NO)C=C(c2ccc(C(F)(F)F)nc2)CC1` [Example 16, (S)-1-(3-fluoro-2-methylphenyl)-N-hydroxy-3-(6-(trifluoromethyl)pyridin-3-yl)cyclopent-2-enecarboxamide], 7.00. Still for that read-out and setting: to `Cc1c(F)cccc1[C@@]1(C(=O)NO)C=C(c2cncc(F)c2)CC1` [Example 6, (S)-1-(3-fluoro-2-methylphenyl)-3-(5-fluoropyridin-3-yl)-N-hydroxycyclopent-2-enecarboxamide] belongs 6.80.

As to `O=C(NO)C1(c2ccccc2)CC=C(c2cncc(F)c2)CC1` (centres unmarked) [Example 43, 4-(5-fluoropyridin-3-yl)-N-hydroxy-1,2,3,6-tetrahydro-[1,1′-biphenyl]-1-carboxamide], the pIC50 in assay [2] is 4.41.

As for `Cc1c(F)cccc1[C@@]1(C(=O)NO)C=C(c2ccc3cnn(C(F)F)c3c2)CC1` [Example 39, (S)-3-(1-(difluoromethyl)-1H-indazol-6-yl)-1-(3-fluoro-2-methylphenyl)-N-hydroxycyclopent-2-enecarboxamide], the negative logarithm of the IC50 (pIC50) in assay [2] was 7.52.

Take `Cc1c(F)cccc1C1(C(=O)NO)CC=C(c2ccc3nccnc3c2)CC1` (centres unmarked) [Example 45, 3′-fluoro-N-hydroxy-2′-methyl-4-(quinoxalin-6-yl)-1,2,3,6-tetrahydro-[1,1′-biphenyl]-1-carboxamide]: in assay [2], the pIC50 was 6.28. On the same count and under the same terms, to `Cc1ccc(C2=C[C@](C(=O)NO)(c3cccc(F)c3C)CC2)cn1` [Example 25, (S)-1-(3-fluoro-2-methylphenyl)-N-hydroxy-3-(6-methylpyridin-3-yl)cyclopent-2-enecarboxamide] belongs 6.92.

As for `Cc1ncc(C2=C[C@@](C(=O)NO)(c3cccc(F)c3C)CC2)cn1` [Example 9, (R)-1-(3-fluoro-2-methylphenyl)-N-hydroxy-3-(2-methylpyrimidin-5-yl)cyclopent-2-enecarboxamide], the pIC50 in assay [2] is less than 4.30.

For `Cc1c(F)cccc1[C@@]1(C(=O)NO)C=C(C2CC2)CC1` [Example 32, (S)-3-cyclopropyl-1-(3-fluoro-2-methylphenyl)-N-hydroxycyclopent-2-enecarboxamide], the pIC50 in assay [2] is 6.14. The same measure, in the same setting: to `Cc1c(F)cccc1[C@@]1(C(=O)NO)C=C(c2ccc3nc(C(F)(F)F)cnc3c2)CC1` [Example 20, (S)-1-(3-fluoro-2-methylphenyl)-N-hydroxy-3-(2-(trifluoromethyl)quinoxalin-6-yl)cyclopent-2-enecarboxamide] belongs 6.85; to `Cc1c(F)cccc1[C@@]1(C(=O)NO)C=C(c2cnn(CC(F)(F)F)c2)CC1` [Example 28, (S)-1-(3-fluoro-2-methylphenyl)-N-hydroxy-3-(1-(2,2,2-trifluoroethyl)-1H-pyrazol-4-yl)cyclopent-2-enecarboxamide], 6.80.
